Measured values taken from US10172957B2, “Acid-labile lipophilic prodrugs of cancer chemotherapeutic agents” (priority 2011, dated 2019).

Experiments:
[1] = Stability in rat plasma at 37° C.; format: in vitro ADME
Experimental: (§1) The stability of the acid labile, lipophilic molecular conjugates to hydrolysis in plasma was evaluated to determine their potential to release the active cancer chemotherapeutic agents into systemic circulation and thereby cause general off target toxicity (“side effects”). The conjugates were incubated with plasma of mouse, rat and human origin.
(§2) HPLC grade Methanol from Fisher (Fair lawn, NJ, USA). Part No: A452-4 (074833). HPLC grade Water from Fisher (Fair lawn, NJ, USA). Part No: W5-4 (073352). Drug-free mouse, rat and human plasmas were purchased from Innovative Research Inc. (Southfield, Mich., USA). LIPOSYN® I.V. (30% soybean oil and egg yolk phospholipids, Abbott Laboratories) Fat Emulsion from Hospira, Inc. (Lake Forest, Ill.).
(§3) Each drug (ART 198, ART 273, ART 488 and ART 489) was prepared in triplicate in mouse, rat and human plasma individually at […] concentration and vortexed for 1 minute and placed in a water bath at 37° C. at a shake rate of 75 per minute. Samples were drawn at time points of 0, 15, 30, 45, 60, 75, 90, 105, 120, 135, 150, 165, 180, 210, 240, 300, 360 and 480 minutes.
(§4) Chromatographic separation of the compounds was performed on a Waters Acquity UPLC™ using a BEH C18 column (1.7 μm, 2.1×50 mm). The mobile phase consisted of Methanol: 0.1% Formic acid (80:20). The flow rate was 0.3 ml/min; the sample injection volume was 5 μL, resulting in a 3 minute run time.
(§5) The MS instrumentation consisted of a Waters Micromass Quattro Micro™ triple-quadrupole system (Manchester, UK). The MS system was controlled by a 4.0 version of MassLynx software. Ionization was performed in the positive electrospray ionization mode. MS/MS conditions were the following: capillary voltage 3.02 kV; cone voltage 50 v; extractor voltage 5 v; and RF lens voltage 0.5 v. The source and desolvation temperatures were 100° C. and 400° C. respectively, and the desolvation and cone gas flow were 400 and 30 L/hr, respectively.
(§6) The selected mass-to-charge (m/z) ratio transitions of the ART 198 used in the selected ion monitoring (SIM) were: for ART 198, 617 (M+K)^+, for ART 273, 589 (M+K)^+, for ART 488, 913 (M+Na)^+, and for ART 489, 957 (M+Na)^+. The dwell time was set at 200 msec. MS conditions were optimized using direct infusion of standard solutions prepared in methanol and delivered by a syringe pump at a flow rate of 20 μL/min.
(§7) Samples of 100 μL were collected at time points of 0, 15, 30, 45, 60, 75, 90, 105, 120, 135, 150, 165, 180, 210, 240, 300, 360 and 480 minutes respectively and the reaction was terminated with methanol. In a separate set of experiments the acid labile, lipophilic molecular conjugates were dissolved in a small amount of ethanol and diluted into a lipid emulsion (Liposyn®) and added to mouse and human plasma before incubation and the hydrolysis of the conjugates was similarly measured. Collected plasma samples of 100 μL containing drug were placed in separate Eppendorf micro centrifuge tubes for processing. Methanol (200 μL) was added to extract the drug using the protein precipitation technique. The micro tubes were then vortex mixed for 10 minutes and centrifuged for 15 minutes at a speed of 10,000 rpm (Eppendorf 5415C centrifuge). The supernatant was collected and filtered using a 0.45 μm filter (Waters 13 mm GHP 0.45 μm) before analysis.
(§8) The weighted linear least-squares (1/x) regression was used as the mathematical model. The coefficient (r) for the compounds ranged from 0.9925 to 0.9999. The calibration range was selected according to the concentrations anticipated in the samples to be determined.
(§9) Samples were collected at various times and the percent remaining of the acid labile, lipophilic molecular conjugate of the cancer chemotherapeutic agent was determined along with the percent of the chemotherapeutic agent released from the hydrolysis of the conjugate.

[2] = Stability in mouse plasma at 37° C.; format: in vitro ADME
Experimental: as §1, §2, §3, §4, §5, §6, §7, §8, §9

Q: Which “percent remaining of initial drug” value ([1]; 0 min) does the source give for `COC(=O)[C@@]12OC[C@]34[C@H]([C@@H](O)[C@@H]1O)[C@@]1(C)CC(=O)C(O)=C(C)[C@@H]1C[C@H]3OC(=O)C(OC(=O)CC1(O)CCCCC1)[C@@H]24` (stereo partly shown) [ART 198] here?
A: 100%

Q: And the “percent remaining of initial drug” value ([1]; 15 min)?
A: 95.8%

Q: What about the “percent remaining of initial drug” value ([1]; 30 min) of the same compound?
A: 84.0%

Q: And the “percent remaining of initial drug” value ([1]; 45 min)?
A: 66.0%

Q: What about the “percent remaining of initial drug” value ([1]; 60 min) of the same compound?
A: 55.7%

Q: What about the “percent remaining of initial drug” value ([1]; 75 min) of the same compound?
A: 54.4%

Q: What about the “percent remaining of initial drug” value ([1]; 90 min) of the same compound?
A: 54.2%

Q: And the “percent remaining of initial drug” value ([1]; 105 min)?
A: 54.0%

Q: What about the “percent remaining of initial drug” value ([1]; 120 min) of the same compound?
A: 52.1%

Q: What about the “percent remaining of initial drug” value ([1]; 135 min) of the same compound?
A: 48.9%

Q: What about the “percent remaining of initial drug” value ([1]; 150 min) of the same compound?
A: 48.9%

Q: What about the “percent remaining of initial drug” value ([1]; 165 min) of the same compound?
A: 45.4%

Q: What about the “percent remaining of initial drug” value ([1]; 180 min) of the same compound?
A: 44.0%

Q: And the “percent remaining of initial drug” value ([1]; 210 min)?
A: 42.7%

Q: What about the “percent remaining of initial drug” value ([1]; 240 min) of the same compound?
A: 42.2%

Q: What about the “percent remaining of initial drug” value ([1]; 300 min) of the same compound?
A: 34.3%

Q: And the “percent remaining of initial drug” value ([1]; 360 min)?
A: 30.1%

Q: What about the “percent remaining of initial drug” value ([1]; 480 min) of the same compound?
A: 30.1%

Q: And the “percent remaining of initial drug” value ([2]; 0 min)?
A: 100%

Q: And the “percent remaining of initial drug” value ([2]; 15 min)?
A: 96.8%

Q: What about the “percent remaining of initial drug” value ([2]; 30 min) of the same compound?
A: 94.0%

Q: And the “percent remaining of initial drug” value ([2]; 45 min)?
A: 85.5%

Q: What about the “percent remaining of initial drug” value ([2]; 60 min) of the same compound?
A: 82.0%

Q: What about the “percent remaining of initial drug” value ([2]; 75 min) of the same compound?
A: 72.6%

Q: And the “percent remaining of initial drug” value ([2]; 90 min)?
A: 66.9%

Q: And the “percent remaining of initial drug” value ([2]; 105 min)?
A: 63.2%

Q: And the “percent remaining of initial drug” value ([2]; 120 min)?
A: 59.2%

Q: And the “percent remaining of initial drug” value ([2]; 135 min)?
A: 57.4%

Q: And the “percent remaining of initial drug” value ([2]; 150 min)?
A: 51.9%

Q: And the “percent remaining of initial drug” value ([2]; 165 min)?
A: 46.2%

Q: What about the “percent remaining of initial drug” value ([2]; 180 min) of the same compound?
A: 43.0%

Q: And the “percent remaining of initial drug” value ([2]; 210 min)?
A: 39.3%

Q: What about the “percent remaining of initial drug” value ([2]; 240 min) of the same compound?
A: 35.4%

Q: And the “percent remaining of initial drug” value ([2]; 300 min)?
A: 32.4%

Q: And the “percent remaining of initial drug” value ([2]; 360 min)?
A: 28.8%

Q: For `CCCCCCCCCCCCCCCC1OCC(COC(=O)O[C@@H]2C(=O)C=C(C)[C@@H]3C[C@H]4OC(=O)C(OC(=O)CC(O)(C(C)C)C(C)C)C5[C@@H](C)[C@@H](O)[C@@]6(O)OC[C@@]54C6[C@@]23C)O1` (stereo partly shown) [ART 488], which “percent remaining of initial drug” value ([1]; 480 min) is on record?
A: 33.3%

Q: And the “percent remaining of initial drug” value ([2]; 0 min)?
A: 100%

Q: And the “percent remaining of initial drug” value ([2]; 15 min)?
A: 91.2%

Q: What about the “percent remaining of initial drug” value ([2]; 30 min) of the same compound?
A: 85.7%

Q: What about the “percent remaining of initial drug” value ([2]; 45 min) of the same compound?
A: 81.3%

Q: What about the “percent remaining of initial drug” value ([2]; 60 min) of the same compound?
A: 75.0%

Q: What about the “percent remaining of initial drug” value ([2]; 75 min) of the same compound?
A: 73.2%

Q: What about the “percent remaining of initial drug” value ([2]; 90 min) of the same compound?
A: 65.2%

Q: What about the “percent remaining of initial drug” value ([2]; 105 min) of the same compound?
A: 58.8%

Q: And the “percent remaining of initial drug” value ([2]; 120 min)?
A: 56.4%

Q: What about the “percent remaining of initial drug” value ([2]; 135 min) of the same compound?
A: 56.2%

Q: And the “percent remaining of initial drug” value ([2]; 150 min)?
A: 55.0%

Q: What about the “percent remaining of initial drug” value ([2]; 165 min) of the same compound?
A: 53.7%

Q: What about the “percent remaining of initial drug” value ([2]; 180 min) of the same compound?
A: 53.7%

Q: And the “percent remaining of initial drug” value ([2]; 210 min)?
A: 52.4%

Q: What about the “percent remaining of initial drug” value ([2]; 240 min) of the same compound?
A: 50.3%

Q: What about the “percent remaining of initial drug” value ([2]; 300 min) of the same compound?
A: 48.2%

Q: And the “percent remaining of initial drug” value ([2]; 360 min)?
A: 45.6%

Q: Which “percent remaining of initial drug” value ([1]; 0 min) does the source give for `CCCCCCCCCCCCCCCC1OCC(COC(=O)OC2=C(C)[C@@H]3C[C@H]4OC(=O)C(OC(=O)CC5(O)CCCCC5)[C@H]5[C@]6(C(=O)OC)OC[C@]45[C@H]([C@@H](O)[C@@H]6O)[C@@]3(C)CC2=O)O1` (stereo partly shown) [ART 489] here?
A: 100%

Q: What about the “percent remaining of initial drug” value ([1]; 15 min) of the same compound?
A: 93.2%

Q: What about the “percent remaining of initial drug” value ([1]; 30 min) of the same compound?
A: 75.8%

Q: And the “percent remaining of initial drug” value ([1]; 45 min)?
A: 74.3%

Q: And the “percent remaining of initial drug” value ([1]; 60 min)?
A: 75.0%

Q: What about the “percent remaining of initial drug” value ([1]; 75 min) of the same compound?
A: 74.4%

Q: And the “percent remaining of initial drug” value ([1]; 90 min)?
A: 74.4%

Q: And the “percent remaining of initial drug” value ([1]; 105 min)?
A: 73.7%

Q: What about the “percent remaining of initial drug” value ([1]; 120 min) of the same compound?
A: 69.9%

Q: And the “percent remaining of initial drug” value ([1]; 135 min)?
A: 68.5%

Q: What about the “percent remaining of initial drug” value ([1]; 150 min) of the same compound?
A: 67.3%

Q: And the “percent remaining of initial drug” value ([1]; 165 min)?
A: 63.0%

Q: And the “percent remaining of initial drug” value ([1]; 180 min)?
A: 63.0%

Q: And the “percent remaining of initial drug” value ([1]; 210 min)?
A: 62.7%

Q: What about the “percent remaining of initial drug” value ([1]; 240 min) of the same compound?
A: 61.7%

Q: What about the “percent remaining of initial drug” value ([1]; 300 min) of the same compound?
A: 55.4%

Q: What about the “percent remaining of initial drug” value ([1]; 360 min) of the same compound?
A: 48.2%

Q: What about the “percent remaining of initial drug” value ([1]; 480 min) of the same compound?
A: 34.3%

Q: What about the “percent remaining of initial drug” value ([2]; 0 min) of the same compound?
A: 100%

Q: And the “percent remaining of initial drug” value ([2]; 15 min)?
A: 95.7%

Q: What about the “percent remaining of initial drug” value ([2]; 30 min) of the same compound?
A: 88.6%

Q: What about the “percent remaining of initial drug” value ([2]; 45 min) of the same compound?
A: 84.8%

Q: And the “percent remaining of initial drug” value ([2]; 60 min)?
A: 79.2%

Q: And the “percent remaining of initial drug” value ([2]; 75 min)?
A: 78.1%

Q: What about the “percent remaining of initial drug” value ([2]; 90 min) of the same compound?
A: 70.1%

Q: What about the “percent remaining of initial drug” value ([2]; 105 min) of the same compound?
A: 68.0%

Q: What about the “percent remaining of initial drug” value ([2]; 120 min) of the same compound?
A: 64.1%

Q: And the “percent remaining of initial drug” value ([2]; 135 min)?
A: 63.2%

Q: What about the “percent remaining of initial drug” value ([2]; 150 min) of the same compound?
A: 59.4%

Q: And the “percent remaining of initial drug” value ([2]; 165 min)?
A: 54.7%

Q: What about the “percent remaining of initial drug” value ([2]; 180 min) of the same compound?
A: 51.6%

Q: What about the “percent remaining of initial drug” value ([2]; 210 min) of the same compound?
A: 50.3%

Q: And the “percent remaining of initial drug” value ([2]; 240 min)?
A: 47.5%

Q: What about the “percent remaining of initial drug” value ([2]; 300 min) of the same compound?
A: 41.1%

Q: And the “percent remaining of initial drug” value ([2]; 360 min)?
A: 38.1%
